Columns and labels:
[1] = Pharmacokinetics: plasma AUC(0-∞) in sham-operated and 5/6N rats (HPLC-MS/MS); type: in vivo, rat; conditions: day 4, mean±SEM; for AUC(0-inf): rat, plasma, po
Protocol: Sham-operated rats were divided into four control groups (N = 5–6 rats per group) in the same manner.
Chromatography for all assays was achieved on a Phenomenex Luna Phenyl-Hexyl 100A, 3 µm, 50×2 mm analytical HPLC column with gradient elution. The analytes were detected and quantified by HPLC-MS/MS using electrospray ionization in the positive ion mode.
Pharmacokinetic analysis was performed using non-compartmental methods with ToxKin V 3.5 (LogicaCMG ITS AG, Switzerland). The linear trapezoidal rule was used for AUC calculation. The terminal half-life (t(1/2)) was calculated as t(1/2) = ln2/λ(z) with the terminal elimination rate constant λ(z) as slope of the logarithmic-linear regression line lnC(t) = lnC(0 h) – λ(z) × t of two or three data points in the terminal phase. Extrapolated AUC(rest, tz-∞) was calculated according to Aronson et al, using the calculated concentration and time (t(z)) of the last measurable data point.

[2] = tested on: 5/6N rats; experiment: Markers of kidney function before and after drug administration in 5/6N rats; type: in vivo, rat; conditions: for effect on concentration of osteopontin: 4 days of treatment vs pre-treatment; for Osteopontin: mean±SEM
Protocol: Creatinine concentration was measured by the Jaffe colorimetric method. Creatinine clearance was estimated as described previously.
For each parameter, the log10-transformed values were analyzed separately using an ANOVA for repeated measurements with factors for experimental group and time as fixed effects. […] These statistical analyses were carried out with the software product SAS (SAS Institute, Cary, NC USA), version 9.2.

[3] = cited from earlier work; for main elimination route: in words
[4] = tested on: uremic rat heart; experiment: Quantitative real-time PCR of BNP and fibrosis markers in uremic rat heart; type: in vivo; conditions: 7 µmol/kg, 4 days; 5/6N rats; vs untreated 5/6N; in words
Protocol: Total RNA was extracted from 50 mg snap-frozen tissue by homogenization in peqGold Trifast reagent (Peqlab). Residual genomic DNA was removed with Turbo DNAse (Applied Biosystems). The RNA concentration and purity were assayed by spectrophotometry. First-strand cDNA synthesis was performed with random hexamer primer and 1 µg RNA using High Capacity cDNA Reverse Transcription Kit (Applied Biosystems) according to the manufacturer's instruction. (For further detail see Vinon-Zellweger et al.)
Sequences from the Ensemble database and the online available Primer3 software were used to create specific, intron-spanning primers for the target genes. […] Synthesized primers were obtained from Sigma-Aldrich®.
A total of 10 ng cDNA in 5 µl was normally used as template for amplification. An additional 0.5 µl of each primer (5 pmol) and 12.5 µl of Power SYBR Green PCR Master Mix (Applied Biosystems) were added and diluted with water to a volume of 25 µl. The PCR was performed on an Mx3000P thermal cycler (Stratagene). Reaction conditions were 95°C for 10 min, 40 cycles at 95°C for 15 sec, and 60°C for 60 sec, followed by an examination of the melting curve. All samples were analyzed in triplicate. The amplification efficiency of every reaction was checked with the linear regression method. Expression of the gene of interest was divided by the housekeeping gene, glyceraldehyde-3-phosphate dehydrogenase, and expressed as fold-change compared with the corresponding sham-operated rats group.

[5] = tested on: active GLP-1; experiment: Plasma active GLP-1 levels after linagliptin; type: in vivo, rat
From the text: Figure 5 Active GLP-1 levels in uremic vs sham animals. […] Following the last dose, plasma was taken after the time points indicated and active GLP-1 was detected. Values are given as mean ± SEM. N = 5 sham-operated, and 8-12 rats for 5/6N.
Active (uncleaved, 7–36 amide or 7–37) GLP-1 was detected using the commercially available Multi-Array Assay System (K150JWC) from Meso Scale Discovery following the instructions of the supplier.

[6] = 7 umol/kg, 5/6N rats, 7 µmol/kg oral once daily
[7] = 7 umol/kg, sham-operated rats, 7 µmol/kg oral once daily
[8] = after (4 days + 72 h) administration, 7.0 µmol/kg
[9] = vs pre-treatment values, in words
[10] = before drug administration, 7.0 µmol/kg group

Structure (SMILES): Cn1c(=O)cc(N2CCC[C@@H](N)C2)n(Cc2ccccc2C#N)c1=O [Alogliptin, alogliptin]
- AUC(0-inf) [1, 6]: 2.44 ± 0.167 µM·h
- AUC(0-inf) [1, 7]: 1.77 ± 0.226 µM·h
- effect on concentration of osteopontin ([2]; 7.0 µmol/kg, in words): significantly reduced
- Osteopontin [2, 8]: 39.1 ± 8.8 ng/mL
- change of cystatin C following 4 days of treatment [2, 9]: significantly increased

Structure (SMILES): CC#CCn1c(N2CCC[C@@H](N)C2)nc2c1c(=O)n(Cc1nc(C)c3ccccc3n1)c(=O)n2C [Linagliptin, linagliptin]
- eliminated via the urine ([3]; oral): 1–5%
- elimination via the bile, share of the orally administered dose ([3]; oral): approximately 85%
- mRNA expression of BNP in uremic rat heart [4]: significantly reduced
- mRNA expression of Col1α1 in uremic rat heart [4]: significantly inhibited
- mRNA expression of Col3α1 in uremic rat heart [4]: significantly inhibited
- mRNA expression of TGF-β1 in uremic rat heart [4]: significantly inhibited
- mRNA expression of TIMP-1 in uremic rat heart [4]: significantly inhibited
- GLP-1 AUC ([5]; 7 μmol/kg, 5/6N): 201 ng·h/L
- GLP-1 AUC ([5]; 7 μmol/kg, sham): 108 ng·h/L
- GLP-1 AUC ([5]; 5/6N rats, linagliptin 7 µmol/kg daily for 4 days): 201.0 ng·h/L
- increase in GLP-1 in 5/6N rats compared with sham-treated rats ([5]; linagliptin 7 µmol/kg, p = 0.01): 2 fold
- GLP-1 AUC ([5]; sham rats, linagliptin 7 µmol/kg daily for 4 days): 108.6 ng·h/L
- AUC(0-∞) ([1]; 5/6N rats, 7 µmol/kg oral once daily): 0.7482 ± 0.07452 µM·h
- AUC(0-inf) ([1]; 0.5 umol/kg, 5/6N rats, 0.5 µmol/kg oral once daily): 0.258 ± 0.0214 µM·h
- AUC(0-inf) ([1]; 0.5 umol/kg, sham-operated rats, 0.5 µmol/kg oral once daily): 0.267 ± 0.0289 µM·h
- AUC(0-inf) [1, 6]: 1.25 ± 0.373 µM·h
- AUC(0-inf) [1, 7]: 0.748 ± 0.0745 µM·h
- AUC(0-∞) ([1]; sham-operated rats, 7 µmol/kg oral once daily): 1.252 ± 0.3788 µM·h
- effect on concentration of osteopontin ([2]; 0.5 µmol/kg, p<0.001, in words): significantly reduced
- effect on concentration of osteopontin ([2]; 7.0 µmol/kg, in words): did not reach statistical significance
- Osteopontin ([2]; after (4 days + 72 h) administration, 0.5 µmol/kg): 48.1 ± 3.8 ng/mL
- Osteopontin [2, 8]: 49.4 ± 10.7 ng/mL
- Osteopontin ([2]; before drug administration, 0.5 µmol/kg group): 70.9 ± 4.7 ng/mL
- Osteopontin [2, 10]: 54.2 ± 10.0 ng/mL
- change of cystatin C following 4 days of treatment [2, 9]: trend toward decreasing

Structure (SMILES): N[C@@H](CC(=O)N1CCn2c(nnc2C(F)(F)F)C1)Cc1cc(F)c(F)cc1F [Sitagliptin, sitagliptin]
- main elimination route [3]: via the kidney
- AUC(0-inf) [1, 6]: 6.24 ± 0.423 µM·h
- AUC(0-inf) [1, 7]: 3.69 ± 0.103 µM·h
- effect on concentration of osteopontin ([2]; 7.0 µmol/kg, in words): significantly reduced
- Osteopontin [2, 8]: 33.4 ± 2.4 ng/mL
- Osteopontin [2, 10]: 48.5 ± 4.4 ng/mL
- change of cystatin C following 4 days of treatment [2, 9]: unchanged
- change of β2-microglobulin concentration following 4 days of treatment [2, 9]: increasing the concentration of β2-microglobulin

Structure (SMILES): N#C[C@@H]1CCCN1C(=O)CNC12CC3CC(CC(O)(C3)C1)C2 [vildagliptin]
- main elimination route [3]: via the kidney
